Test results published in paper PMC10374545, “A small molecule inhibitor of PTP1B and PTPN2 enhances T cell anti-tumor immunity” (Nature Communications, 2023).
“And” between values parts separate entries of the source, which are not always exact repeats. Identical values can stand only once.

Legend:
spleen = assay: Spleen weight, splenocytes and splenic CD8+ EM T cell signaling in AT3-OVA tumor-bearing mice; type: in vivo, mouse
Description: Single-cell suspensions from spleens and lymph nodes were obtained as described previously. For the detection of intracellular cytokines and granzyme B, T cells were fixed and permeabilized with the BD Cytofix/Cytoperm kit according to the manufacturer’s instructions. Briefly, T cells were first surface stained with fluorophore-conjugated antibodies and then fixed followed by permeabilization on ice for 20 min. Fixed and permeabilized cells were stained for IFN-γ, TNF, and granzyme B for 45 min at room temperature. For the detection of intracellular FoxP3 the Foxp3/Transcription Factor Staining Buffer Set (eBioscience) was used according to the manufacturer’s instructions. Briefly, cells were fixed and permeabilized for 1 h on ice followed by intracellular staining at room temperature for 45 min. For the detection of serum cytokines, the BD CBA Mouse Inflammation Kit™ was used according to the manufacturers’ instructions.
Cells (1 × 10^6/10 µl) were stained with the specified antibodies on ice for 30 min in D-PBS supplemented with 2% FBS in the dark and analyzed using a Fortessa or Symphony A3 (BD Biosciences). Data was acquired using BD FACS DIVA Software v8.0.1 and analyzed using FlowJo10 (Tree Star Inc.) software. Lymphocytes were gated for eYFP^+ cells to discriminate between PTPN2 sufficient and PTPN2 negative cells after poly(I:C)-induced PTPN2-deletion in Mx1-Cre;Ptpn2^fl/fl mice. For cell quantification, known numbers of Flow-Count Fluorospheres (Beckman Coulter) were added to samples before analysis. Dead cells were excluded with propidium iodide (1 μg/ml; Sigma-Aldrich). Paraformaldehyde fixed dead cells were excluded with the LIVE/DEAD™ Fixable Near-IR Dead Cell Stain Kit (Thermo Fisher Scientific).
OVA mammary tumor cells were injected into the fourth inguinal mammary fat pads of 8 week- […]
n=8) or saline (n=8) on days (d) 6, 8, 10, 12, 14, 16, 18 and 21 after tumor cell implantation. […]
CD44hiCD62Llo CD8+ and CD4+ effector/memory (EM) T cells, CD4+CD25+FoxP3+ regulatory T cells (Tregs) and granulocytic and monocytic […]
CD8+ and CD4+ EM T cells were analysed by flow cytometry. In (a-d) representative results (means ± SEM) from at least two independent experiments are shown. In (d) significances were determined using a 1-way ANOVA Test.

MC38 colon tumors = assay: Tumor-infiltrating lymphocytes in MC38 tumors; type: in vivo, mouse; design: CD4 EM, individual mice / CD8 EM, individual mice / GRZMB, individual mice / B cells, individual mice / NK cells, individual mice / Tregs, individual mice / MDSCs, individual mice: unit not given here
Description: Tumor-bearing mice were sacrificed and tumors were excised and digested at 37 °C for 30 min using a cocktail of 1 mg/ml collagenase type IV (Worthington Biochemicals) and 0.02 mg/ml DNase I (Sigma-Aldrich) in DMEM supplemented with 2% (v/v) FBS. Cells were passed through a 70 μm cell strainer (BD Biosciences) twice and processed for flow cytometry. For assessing T cell activation, cells were surface stained with fluorophore-conjugated antibodies to CD62L, CD44, PD-1, and TIM-3. For the assessment of NK cells, B cells, myeloid-derived suppressor cells (MDSCs), dendritic cells (DCs), and tumor-associated macrophages, cells were surface stained with fluorophore-conjugated antibodies to NK1.1, TCRβ, CD19, CD11b, CD11c, F4/80, Ly6C and Ly6G. For the detection of intracellular cytokines TNF and IFNγ, T cells were stimulated with PMA (20 ng/ml; Sigma-Aldrich) and ionomycin (1 μg/ml; Sigma-Aldrich) in the presence of GolgiPlug™ and GolgiStop™ (BD Biosciences) for 4 h at 37 °C in complete T cell medium. For the intracellular detection of granzyme B, cells were processed untreated without the addition of BD GolgiPlug™ and BD GolgiStop™.

[1] = splenic CD8+ EM T cells, 10 mg/kg i.v., Fig. 3E raw data, listed as CMP-182, 10 mg/kg
[2] = MC38 tumours, Figure 4B, listed as CMP-182
[3] = MC38 tumours, Figure 4C, listed as CMP-182

CC(C)(O)CCOc1ccc2cc(O)c(N3CC(=O)NS3(=O)=O)c(F)c2c1 [Compound 182, 5-(1-Fluoro-3-hydroxy-7-(3-hydroxy-3-methylbutoxy)naphthalen-2-yl)−1,2,5-thiadiazolidin-3-one 1,1-dioxide]
basal p-SFK and p-STAT-5 in splenic CD8+ effector/memory T cells (spleen; 10 mg/kg i.v.): enhanced | spleen weights and splenic T cell and myeloid numbers (spleen; AT3-OVA tumor-bearing mice, 10 mg/kg i.v.): unaltered | B cells Spleen (median) (spleen; Figure 3C, column B, n=8): 1202070, n=8 | Nk cells Spleen (median) (spleen; Figure 3C, column B, n=8): 1062533, n=8 | pSFK CD8 EM (median) (spleen; Figure 3E, column B, n=8): 356.5, n=8 | pSTAT5 CD8 EM (median) (spleen; Figure 3E, column B, n=8): 960.5, n=8 | p-SFK MFIs, single mice (spleen; [1]): 362 and 359 and 441 and 347 and 414 and 282 and 298 and 354 | p-STAT-5 MFIs, single mice (spleen; [1]): 1043 and 825 and 973 and 931 and 1046 and 926 and 948 and 1137 | TILs in MC38 tumors (MC38 colon tumors; 10 mg/kg i.v.): increased TILs | CD4 EM, individual mice (MC38 colon tumors; [2]): 7887.52 and 30840.7 and 10292.6 and 20601 and 9909.06 | CD8 EM, individual mice (MC38 colon tumors; [2]): 15044.4 and 39708.3 and 17222.4 and 39521.3 and 13554.1 | GRZMB, individual mice (MC38 colon tumors; [2]): 88.5 and 78.2 and 82.1 and 82.7 and 77.1 | PD-1 TIM-3, individual mice (MC38 colon tumors; [2]): 71 and 72.3 and 61.5 and 79.9 and 67.1 | B cells, individual mice (MC38 colon tumors; [3]): 1614.8 and 2825.59 and 875.433 and 4615.54 and 1539.85 | MDSCs, individual mice (MC38 colon tumors; [3]): 35014.8 and 125819 and 42394.5 and 66581.6 and 40317.8 | NK cells, individual mice (MC38 colon tumors; [3]): 12195.1 and 31635.4 and 14041.5 and 15109.2 and 9658.51 | Tregs, individual mice (MC38 colon tumors; [3]): 1910.56 and 8524.67 and 3417.74 and 9313.01 and 2270.7
